# Reference: article PMC10805800 (Cell Discovery, 2024)
# Columns and labels:
# Format in all cases: binding
# [1] = molecular target: T1, LRRK2 (Leucine-rich repeat kinase 2) (Homo sapiens, UniProt Q5S007); test: cryo-EM structure at […] Å; also ADP-Glo kinase inhibition (RCKWm)
# T1 construct: full-length LRRK2
# [2] = molecular target: T1, LRRK2 (Leucine-rich repeat kinase 2); test: as above; remark: listed apart in the source
# [3] = molecular target: T2, LRRK2 (Leucine-rich repeat kinase 2) (Homo sapiens, UniProt Q5S007, M1732R); test: cryo-EM structure at […] Å; also ADP-Glo kinase inhibition
# T2 construct: LRRK2^RCKWm (ROC-COR-KIN-WD40, without ARM-ANK-LRR domains)
# T2 sequence (Q5S007 1327-2527 M1732R): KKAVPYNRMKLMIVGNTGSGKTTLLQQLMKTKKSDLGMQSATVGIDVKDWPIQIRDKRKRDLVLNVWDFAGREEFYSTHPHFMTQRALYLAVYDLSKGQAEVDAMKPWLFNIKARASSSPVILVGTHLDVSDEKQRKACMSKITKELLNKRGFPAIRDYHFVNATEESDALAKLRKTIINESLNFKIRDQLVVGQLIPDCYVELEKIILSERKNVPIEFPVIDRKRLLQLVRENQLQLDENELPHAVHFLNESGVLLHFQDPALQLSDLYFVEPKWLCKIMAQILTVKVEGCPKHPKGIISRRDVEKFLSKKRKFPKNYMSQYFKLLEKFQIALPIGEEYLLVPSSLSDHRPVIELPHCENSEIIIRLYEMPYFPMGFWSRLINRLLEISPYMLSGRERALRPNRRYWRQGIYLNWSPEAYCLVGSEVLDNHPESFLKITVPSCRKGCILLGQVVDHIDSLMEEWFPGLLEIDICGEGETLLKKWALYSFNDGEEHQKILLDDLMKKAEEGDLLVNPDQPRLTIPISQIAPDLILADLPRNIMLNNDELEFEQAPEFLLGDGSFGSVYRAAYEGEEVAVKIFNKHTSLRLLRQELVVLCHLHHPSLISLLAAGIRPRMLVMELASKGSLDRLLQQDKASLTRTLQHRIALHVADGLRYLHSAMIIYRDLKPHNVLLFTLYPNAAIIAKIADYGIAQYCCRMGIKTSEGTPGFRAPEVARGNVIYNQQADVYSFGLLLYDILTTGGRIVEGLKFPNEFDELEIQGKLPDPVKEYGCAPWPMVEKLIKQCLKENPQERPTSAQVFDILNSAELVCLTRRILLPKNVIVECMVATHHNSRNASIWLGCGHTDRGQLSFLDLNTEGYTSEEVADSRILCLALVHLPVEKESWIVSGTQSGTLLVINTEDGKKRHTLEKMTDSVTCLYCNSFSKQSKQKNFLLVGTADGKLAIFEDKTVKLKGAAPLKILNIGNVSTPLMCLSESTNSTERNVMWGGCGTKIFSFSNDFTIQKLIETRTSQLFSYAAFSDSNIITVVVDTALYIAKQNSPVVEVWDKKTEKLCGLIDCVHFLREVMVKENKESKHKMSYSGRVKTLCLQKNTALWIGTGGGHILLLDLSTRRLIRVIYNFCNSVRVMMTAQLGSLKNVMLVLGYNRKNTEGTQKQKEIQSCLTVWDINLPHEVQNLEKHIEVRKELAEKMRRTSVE
# T1 sequence (Q5S007 whole entry): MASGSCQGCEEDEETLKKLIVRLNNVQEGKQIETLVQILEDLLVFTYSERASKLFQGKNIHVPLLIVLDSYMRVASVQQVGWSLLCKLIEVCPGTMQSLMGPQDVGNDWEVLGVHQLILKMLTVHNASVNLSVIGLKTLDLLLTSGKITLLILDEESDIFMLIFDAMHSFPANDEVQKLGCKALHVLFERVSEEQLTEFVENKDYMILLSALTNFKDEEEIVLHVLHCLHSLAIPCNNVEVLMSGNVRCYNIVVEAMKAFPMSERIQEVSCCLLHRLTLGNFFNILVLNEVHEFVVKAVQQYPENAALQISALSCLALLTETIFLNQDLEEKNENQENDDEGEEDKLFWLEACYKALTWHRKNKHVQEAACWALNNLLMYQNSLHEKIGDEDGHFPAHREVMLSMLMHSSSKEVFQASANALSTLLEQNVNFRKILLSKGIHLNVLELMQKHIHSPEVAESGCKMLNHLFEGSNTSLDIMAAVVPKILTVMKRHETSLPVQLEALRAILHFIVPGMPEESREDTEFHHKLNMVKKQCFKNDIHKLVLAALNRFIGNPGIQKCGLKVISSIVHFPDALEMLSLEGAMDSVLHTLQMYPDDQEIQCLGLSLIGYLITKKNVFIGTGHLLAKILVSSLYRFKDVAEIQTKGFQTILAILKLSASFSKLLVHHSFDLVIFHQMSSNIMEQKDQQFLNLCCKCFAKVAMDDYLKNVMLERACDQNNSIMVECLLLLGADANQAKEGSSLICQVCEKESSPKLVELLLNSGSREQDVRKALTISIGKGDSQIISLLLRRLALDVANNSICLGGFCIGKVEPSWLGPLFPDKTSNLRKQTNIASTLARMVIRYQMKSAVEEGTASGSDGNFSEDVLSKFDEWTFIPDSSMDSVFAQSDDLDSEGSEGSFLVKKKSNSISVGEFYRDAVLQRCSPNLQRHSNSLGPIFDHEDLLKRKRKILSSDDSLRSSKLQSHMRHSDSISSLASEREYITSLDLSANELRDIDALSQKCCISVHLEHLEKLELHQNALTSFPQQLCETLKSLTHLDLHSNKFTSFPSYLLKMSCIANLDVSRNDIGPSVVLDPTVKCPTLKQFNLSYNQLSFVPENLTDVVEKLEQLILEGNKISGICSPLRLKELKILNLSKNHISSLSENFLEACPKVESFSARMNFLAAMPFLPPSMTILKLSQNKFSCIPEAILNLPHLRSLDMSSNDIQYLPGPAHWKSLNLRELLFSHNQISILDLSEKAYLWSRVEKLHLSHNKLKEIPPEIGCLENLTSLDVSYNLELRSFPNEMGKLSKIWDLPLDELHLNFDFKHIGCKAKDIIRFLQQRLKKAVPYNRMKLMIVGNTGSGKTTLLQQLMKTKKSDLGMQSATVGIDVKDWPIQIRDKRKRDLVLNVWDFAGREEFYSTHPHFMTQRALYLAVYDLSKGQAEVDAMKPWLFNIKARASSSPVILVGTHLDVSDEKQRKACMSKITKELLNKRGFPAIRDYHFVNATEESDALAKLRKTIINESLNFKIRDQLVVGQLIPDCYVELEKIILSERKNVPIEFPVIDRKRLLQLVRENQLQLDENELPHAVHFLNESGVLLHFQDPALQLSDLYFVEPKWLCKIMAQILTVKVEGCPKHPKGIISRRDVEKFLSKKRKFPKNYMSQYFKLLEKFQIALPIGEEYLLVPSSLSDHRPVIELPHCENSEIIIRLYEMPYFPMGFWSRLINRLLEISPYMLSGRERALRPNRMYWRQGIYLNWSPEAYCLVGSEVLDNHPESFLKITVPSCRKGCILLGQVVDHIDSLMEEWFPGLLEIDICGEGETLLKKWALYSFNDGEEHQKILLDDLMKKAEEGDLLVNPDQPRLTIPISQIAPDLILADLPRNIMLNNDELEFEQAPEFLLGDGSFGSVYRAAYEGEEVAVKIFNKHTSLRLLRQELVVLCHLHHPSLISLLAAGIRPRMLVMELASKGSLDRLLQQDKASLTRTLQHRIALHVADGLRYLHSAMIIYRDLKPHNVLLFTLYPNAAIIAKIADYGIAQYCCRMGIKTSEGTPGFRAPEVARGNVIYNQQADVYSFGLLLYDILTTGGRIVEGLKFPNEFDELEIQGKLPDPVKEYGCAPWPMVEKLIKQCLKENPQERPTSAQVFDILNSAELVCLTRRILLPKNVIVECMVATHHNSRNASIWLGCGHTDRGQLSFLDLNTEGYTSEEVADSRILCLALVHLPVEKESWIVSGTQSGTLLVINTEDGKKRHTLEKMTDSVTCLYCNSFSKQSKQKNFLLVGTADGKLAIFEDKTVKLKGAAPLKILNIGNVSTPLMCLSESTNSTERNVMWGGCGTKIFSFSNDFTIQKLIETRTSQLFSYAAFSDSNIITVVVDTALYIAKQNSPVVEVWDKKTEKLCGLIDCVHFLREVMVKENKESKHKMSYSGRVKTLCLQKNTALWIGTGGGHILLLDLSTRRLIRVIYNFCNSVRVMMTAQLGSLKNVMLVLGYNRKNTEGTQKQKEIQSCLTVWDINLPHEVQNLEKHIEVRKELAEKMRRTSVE
structure (smiles),measurement,setting,value
CNC(=O)c1cc(Oc2ccc(NC(=O)Nc3cc(C(C)(C)C)nn3-c3ccc4ncccc4c3)c(F)c2)ccn1 [rebastinib],cryo-EM structure at 3.7 Å; also ADP-Glo kinase inhibition (RCKWm),[1],"8U8B (LRRK2–rebastinib), 8U8A (LRRK2–ponatinib), 8U7L (LRRK2–GZD-824)"
Cc1ccc(C(=O)Nc2ccc(CN3CCN(C)CC3)c(C(F)(F)F)c2)cc1C#Cc1cnc2[nH]ncc2c1 [GZD-824],cryo-EM structure at 3.6 Å; also ADP-Glo kinase inhibition (RCKWm),[2],GZD-824 and ponatinib are analogous compounds and bind to LRRK2 in a similar manner
COc1cc(C(=O)N2CCC(N3CCN(C)CC3)CC2)ccc1Nc1ncc2c(n1)N(C)c1ccccc1C(=O)N2C [LRRK2-IN-1],cryo-EM structure at 3.5 Å; also ADP-Glo kinase inhibition,[3],8U7H (LRRK2^RCKWm–GNE-7915) and 8FO7 (LRRK2^RCKWm–LRRK2-IN-1)
